According to patent US20010049368A1, “Method for treating or preventing depression” (priority 2000, published 2001):
Blank lines part the entries; values can stand above or below the molecule they belong to.

Legend:
[1] = biological target: T1, human NK-1 receptor (Homo sapiens, UniProt P25103); test: NK-1 receptor binding assay in intact CHO cells (125I-Tyr8-substance P); settings: CHO cells expressing the human NK-1 receptor
T1 construct: expressed in transfected cells; host or cells: intact CHO (Chinese hamster ovary) cells
T1 sequence (P25103 whole entry): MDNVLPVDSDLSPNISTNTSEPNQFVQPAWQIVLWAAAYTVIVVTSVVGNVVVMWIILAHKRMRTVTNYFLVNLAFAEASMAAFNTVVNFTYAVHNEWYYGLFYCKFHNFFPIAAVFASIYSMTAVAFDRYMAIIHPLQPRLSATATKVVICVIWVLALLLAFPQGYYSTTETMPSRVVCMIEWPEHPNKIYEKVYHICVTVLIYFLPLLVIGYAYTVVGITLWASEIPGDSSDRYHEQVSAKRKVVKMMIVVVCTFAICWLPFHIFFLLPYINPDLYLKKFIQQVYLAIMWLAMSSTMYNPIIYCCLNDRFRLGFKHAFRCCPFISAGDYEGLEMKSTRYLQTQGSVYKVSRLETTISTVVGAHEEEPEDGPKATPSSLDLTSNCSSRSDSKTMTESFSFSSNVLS
Description: NK-1 receptor binding assays are performed in intact Chinese hamster ovary (CHO) cells expressing the human NK-1 receptor using a modification of the assay conditions described by Cascieri et al, J. Pharmacol. Exp. Ther., 1992, 42, 458. Typically, the receptor is expressed at a level of 3×10^5 receptors per cell. Cells are grown in monolayer culture, detached from the plate with enzyme-free dissociation solution (Speciality Media Inc.), and washed prior to use in the assay. ^125I-Tyr^8-substance P (0.1 nM, 2000 Ci/mmol; New England Nuclear) is incubated in the presence or absence of test compounds (dissolved in 5 μl dimethylsulphoxide, DMSO) with 5×10^4 CHO cells. Ligand binding is performed in 0.25 ml of 50 mM Tris-HCl, pH7.5, containing 5 mM MnCl2, 150 mM NaCl, 0.02% bovine serum albumin (Sigma), 50 μg/ml chymostatin (Peninsula), 0.1 nM phenylmethylsulphonyl fluoride, 2 μg/ml pepstatin, 2 μg/ml leupeptin and 2.8 μg/ml furoyl saccharine. The incubation proceeds at room temperature until equilibrium is achieved (>40 minutes) and the receptor-ligand complex is harvested by filtration over GF/C filters pre-soaked in 0.1% polyethylenimine using a Tomtek 96-well harvester. Non-specific binding is determined using excess substance P (1 μM) and represents <10% of total binding.

[2] = tested on: PDE IV inhibitor-induced emesis in the ferret; test: Ferret emesis: PDE4 inhibitors and neurokinin-1 receptor antagonists; assay type: in vivo; settings: NK-1 antagonist 3 mg kg-1 i.p. or s.c. 30 minutes prior to oral emetic dose of PDE IV inhibitor
Description: Intracerebroventricular (i.c.v.) administration was performed following a surgical implantation of an i.c.v. guide cannula. Under isoflurane anaesthesia, a 22 gauge stainless steel guide cannula (total length=20 mm) was lowered 9 mm below the surface of the skull, at the midline, 2 mm anterior to the cross-suture of the posterior edge of the skull. The tip of the guide cannula is then positioned 3-5 mm directly above the area postrema. The guide cannula was fixed to the skull using 2 screws and dental acrylic cement. The animals received antibiotic (Clamoxyl LA, SmithKline Beecham, Surrey, U.K.; 15 mg kg^−1 s.c.) and analgesic injections (Zenecarp, C-Vet Limited, Edmounds, U.K.; 5 mg kg^−1 s.c.) and were housed in individual cages. They were allowed at least 1 week to recover. Intracerebroventricular administration of drugs was performed by inserting an injection unit of 24-25 mm (level of the area postrema) or 27 mm (for brain tissue injection) length into the guide cannula and infusing 2 μl of the drug solution (or vehicle) over 1 minute. The drugs were dissolved in DMSO or sterile water. […]
Anti-emetic agents ondansetron (3 mg kg^−1 i.p.), and neurokinin-1 receptor antagonists (3 mg kg^−1 i.p. or s.c.) were administered 30 minutes prior to an oral challenge with an emetic dose of selected PDE IV inhibitors. […] The emetic response was monitored as described earlier. […]

[3] = tested on: emesis in ferrets (retches and vomits); test: Ferret emesis: PDE4 inhibitors and alpha-2 adrenoreceptor agonists/antagonists; settings: for emesis (retching and vomiting) induced by the drug itself: yohimbine by intraperitoneal injection, clonidine 62.5-250 μg kg-1
Description: Experiments were conducted using male, adult, fitch or albino ferrets. They were housed in a humidity and temperature controlled environment and fed on carnivore diet (standard cat food) once a day with water ad libitum. On the day of the experiment, the animals were put in individual observation cages and left to habituate for at least 30 minutes.
Drugs were dissolved immediately before use in 100% PEG 300 or sterile water). Oral administration (p.o.) was performed using a 10 cm feeding tube and drugs were administered in a dosing volume of 1 ml kg^−1. Subcutaneous (s.c.) injections were performed at the base of the neck, using sterile water or PEG 300 as the vehicle. The injection volume used was 0.5-1.0 ml kg^−1. For intravenous (i.v.) injections, the left jugular vein was catheterized with a polyethene cannula under halothane anaesthesia. Drugs were dissolved in PEG 300 50% in sterile water and injected in a volume of 1 ml-kg^−1. The vein was then ligated, the incision closed and the animals observed continuously thereafter.
Ferrets were pre-treated with the alpha2-adrenoceptor antagonist, yohimbine.

IC50 [1]: 0.25 nM
SMILES: C[C@@H](O[C@H]1OCCN(Cc2nn[nH]c2CN(C)C)[C@H]1c1ccccc1)c1cc(C(F)(F)F)cc(C(F)(F)F)c1 [2-(R)-(1-(R)-(3,5-bis(trifluoromethyl)phenyl)ethoxy)-4-(5-(N,N-dimethylamino)methyl-1,2,3-triazol-4-yl)methyl-3-(S)-phenylmorpholine]

SMILES: COc1ccccc1CN[C@H]1CCCN[C@H]1c1ccccc1 [CP-99,994]
effect on PDE IV inhibitor-induced emesis [2]: abolished

SMILES: CS(=O)(=O)NCCN1C(=O)NC[C@]12CCN1CCc3c(oc4ccccc34)[C@@H]1C2 [MK-467]
emesis (retching and vomiting) induced by the drug itself [3]: Emesis was also recorded

SMILES: CN1CC[C@]2(CCN3CCc4c(oc5ccccc45)[C@@H]3C2)N(C)C1=O [MK-912]
emesis (retching and vomiting) induced by the drug itself [3]: Emesis was also recorded

SMILES: Clc1cccc(Cl)c1N=C1NCCN1 [clonidine]
number of retches and vomits induced by RS 14203 ([3]; RS 14203 1 mg kg-1 p.o., clonidine 62.5-250 μg kg-1 pre-treatment): dose-dependently decreased | latency of onset of RS 14203-induced emesis ([3]; RS 14203 1 mg kg-1 p.o., clonidine pre-treatment): increased | emesis induced by CT-2450 ([3]; clonidine 250 μg kg-1, CT-2450 30 mg kg-1 p.o., all animals treated): abolished | animals with complete protection against R-rolipram-induced emesis ([3]; clonidine 250 μg kg-1, R-rolipram 3 mg kg-1 p.o.): two out of three | animals with complete protection against RS 14203-induced emesis ([3]; clonidine 250 μg kg-1, RS 14203 1 mg kg-1 p.o.): five out of six

SMILES: COC(=O)[C@@H]1[C@H]2C[C@H]3c4[nH]c5ccccc5c4CCN3C[C@@H]2CC[C@@H]1O [yohimbine]
emesis (retching and vomiting) induced by the drug itself [3]: induced retching and vomiting in all ferrets treated
